Data from patent publication US9856321B2, “Anti-DR5 antibodies, polynucleotides and methods” (Daiichi Sankyo Company, Limited, priority 2010, dated 2018).

Tests used:
[1] = test system: human non-small cell lung cancer cell line NCI-H1975; conditions: day 32; antibody 3 mg/kg tail vein days 11, 18, 25; paclitaxel 6.25 mg/kg tail vein days 11-14
Experimental: The major axis and the minor axis of the implanted tumor were measured twice a week using an electronic digital caliper (manufactured by Mitutoyo Corporation), and the tumor volume was calculated according to the following calculation formula. Tumor volume (mm^3)=1/2×(Minor axis)^2 (mm)×(Major axis)^2 (mm)
3×10^6 cells of a human non-small cell lung cancer cell line NCI-H1975 (purchased from ATCC) were implanted subcutaneously in the axillary region of nude mice. […] Paclitaxel was administered to tumor-bearing mice through the tail vein on days 11, 12, 13, and 14 after the implantation at a dose of 6.25 mg/kg. The experiment was carried out at n=6. In the same manner as described above, the major axis and the minor axis of the implanted tumor were measured, and the tumor volume was calculated.

[2] = test system: human melanoma cell line A375; assay: Antitumor activity in nude mice implanted with A375 (in combination with vinblastine); format: in vivo; conditions: day 46; cB273 10 mg/kg tail vein days 10, 17, 24; vinblastine 10 mg/kg tail vein day 10
[3] = test system: human colon cancer cell line HCT-15; assay: Antitumor activity in combination with 5-FU in nude mice implanted with HCT-15, comparison with conatumumab; format: in vivo; conditions: day 28; antibody 3 mg/kg tail vein days 7, 14, 21; 5-FU 160 mg/kg tail vein day 7
[4] = test system: human lung cancer cell line NCI-H1975; assay: Comparison of antitumor activity in nude mice implanted with NCI-H1975 between cB273 and conatumumab; format: in vivo; conditions: day 32 after the implantation
Experimental: 3×10^6 cells of a human lung cancer cell line NCI-H1975 (purchased from ATCC) were implanted subcutaneously in the axillary region of nude mice. […] In the same manner as described above, the major axis and the minor axis of the implanted tumor were measured, and the tumor volume was calculated.

[5] = test system: human colon cancer cell line HCT-15; assay: Comparison of antitumor activity in nude mice implanted with HCT-15 between cB273 and conatumumab; format: in vivo; conditions: day 30 after the implantation
Experimental: 1×10^7 cells of a human colon cancer cell line HCT-15 (purchased from ATCC) were implanted subcutaneously in the axillary region of nude mice. […] In the same manner as described above, the major axis and the minor axis of the implanted tumor were measured, and the tumor volume was calculated.

[6] = test system: human colon cancer cell line DLD-1; assay: Antitumor activity in nude mice implanted with DLD-1 (in combination with CPT-11); format: in vivo; conditions: day 55; cB273 10 mg/kg ip day 35; CPT-11 80 mg/kg ip days 35, 40, 43
Experimental: CPT-11 was intraperitoneally administered at a dose of 80 mg/kg on days 35, 40, and 43 after the implantation (n=10).

[7] = test system: human colon cancer cell line HCT-116; assay: Antitumor activity in nude mice implanted with HCT-116 (in combination with CPT-11); format: in vivo; conditions: day 28; cB273 10 mg/kg tail vein day 7; CPT-11 65 mg/kg ip days 7, 10, 14
Experimental: CPT-11 was intraperitoneally administered at a dose of 65 mg/kg on days 7, 10, and 14 after the implantation (n=10).

[8] = test system: human colon cancer cell line HCT-15; assay: Antitumor activity in nude mice implanted with HCT-15 (in combination with CPT-11); format: in vivo; conditions: day 31; cB273 10 mg/kg tail vein day 7; CPT-11 80 mg/kg ip days 7, 10, 14
Experimental: CPT-11 was intraperitoneally administered at a dose of 80 mg/kg on days 7, 10, and 14 after the implantation (n=10).

[9] = test system: human glioblastoma cell line U-87MG; assay: In vitro cytocidal activity of mouse antibody B273, U-87MG; format: cell-based; conditions: 10,000 to 0.01 ng/ml with goat anti-mouse IgG Fc, 24 hours
Experimental: (§1) Each of a human T-lymphoma cell line Jurkat and a human glioblastoma cell line U-87MG was prepared at 4.4×10^4 cells/ml in RPMI 1640 medium containing 10% FBS or MEM (Minimum Essential Medium) medium containing 10% FBS and added to a white clear bottom 96-well microplate (manufactured by Corning Incorporated) at […], and cultured overnight under the conditions of 37° C. and 5% CO2. The mouse B273 antibody or the mouse IgG1 antibody (manufactured by R&D Systems, Inc.) was mixed with the same concentration of AffiniPure goat anti-mouse IgG Fc specific (manufactured by Jackson ImmunoResearch Laboratories, Inc., #115-005-071), and the resulting mixture was added at 5 μl/well such that the final concentration of the mouse B273 antibody or the mouse IgG1 antibody was 10,000 to 0.01 ng/ml, and the cells were cultured under the conditions of 37° C. and 5% CO2 for 24 hours. The amount of ATP derived from viable cells in each well was measured by a luminometer (manufactured by Perkin Elmer, Inc.) using a CellTiter-Glo® luminescent cell viability assay kit (manufactured by Promega Corporation, #G7571) according to the attached protocol. The cytocidal activity was evaluated by taking the value obtained from the well to which the medium was added in place of the antibody solution as 100% (FIG. 1). In each graph, the cell viability is expressed as a mean±standard deviation (n=3).

[10] = test system: human T-lymphoma cell line Jurkat; assay: In vitro cytocidal activity of mouse antibody B273, Jurkat; format: cell-based; conditions: 10,000 to 0.01 ng/ml with goat anti-mouse IgG Fc, 24 hours
Experimental: as §1

In the case of `CC(=O)O[C@H]1C(=O)[C@@]2(C)[C@H]([C@H](OC(=O)c3ccccc3)[C@]3(O)C[C@H](OC(=O)[C@H](O)[C@@H](NC(=O)c4ccccc4)c4ccccc4)C(C)=C1C3(C)C)[C@]1(OC(C)=O)CO[C@@H]1C[C@@H]2O` [paclitaxel], the “tumor growth inhibitory rate” value [1] is reported as 49%.

For `CC[C@]1(O)C[C@@H]2CN(CCc3c([nH]c4ccccc34)[C@@](C(=O)OC)(c3cc4c(cc3OC)N(C)[C@H]3[C@@](O)(C(=O)OC)[C@H](OC(C)=O)[C@]5(CC)C=CCN6CC[C@]43[C@@H]65)C2)C1` [vinblastine, reference compound], the “tumor growth inhibitory rate” value [2] was 43.6%.

`O=c1[nH]cc(F)c(=O)[nH]1` [5-FU] was tested, and the “tumor growth inhibitory rate” value [3] was 54%.

In the case of conatumumab [reference compound], the “tumor growth inhibitory rate” value [1] is reported as 40%, the “tumor growth inhibitory rate” value [3] is reported as 27% and the “tumor growth inhibitory rate” value ([4]; 3 mg/kg tail vein days 12, 19, 26) is reported as 13.5%. For the same molecule, the “tumor growth inhibitory rate” value ([4]; 10 mg/kg tail vein days 12, 19, 26) was 12.6%, the “tumor growth inhibitory rate” value ([5]; 3 mg/kg tail vein days 6, 13, 20) was 27.4% and the “tumor growth inhibitory rate” value ([5]; 10 mg/kg tail vein days 6, 13, 20) was 26.9%. The “tumor growth inhibitory rate” value ([5]; 30 mg/kg tail vein days 6, 13, 20) was 20.3%.

`CCc1c2c(nc3ccc(OC(=O)N4CCC(N5CCCCC5)CC4)cc13)-c1cc3c(c(=O)n1C2)COC(=O)[C@]3(O)CC` [CPT-11, irinotecan (CPT-11), reference compound] was tested, and the “tumor growth inhibitory rate” value [6] was 29.5%, the “tumor growth inhibitory rate” value [7] was 89.8% and the “tumor growth inhibitory rate” value [8] was 83.5%.

B1: B273: mouse anti-human DR5 monoclonal antibody from hybridoma B273; heavy chain SEQ ID NO: 8, light chain SEQ ID NO: 10; IgG1, κ (antibody, listed as Mus musculus)
heavy: MGWSCIFLFLLSVTVGVFSEVQLQQSGPELVKPGASVKISCKASGYSFIGYFMNWMKQSHGKSLEWIGRFNPYNGDTFYNQKFKGKATLTVDKSSTTAHMELLSLTSEDSAVYFCGRSAYYFDSGGYFDYWGQGTTLTVSSAKTTPPSVYPLAPGSAAQTNSMVTLGCLVKGYFPEPVTVTWNSGSLSSGVHTFPAVLQSDLYTLSSSVTVPSSTWPSETVTCNVAHPASSTKVDKKIVPRDCGCKPCICTVPEVSSVFIFPPKPKDVLTITLTPKVTCVVVDISKDDPEVQFSWFVDDVEVHTAQTQPREEQFNSTFRSVSELPIMHQDWLNGKEFKCRVNSAAFPAPIEKTISKTKGRPKAPQVYTIPPPKEQMAKDKVSLTCMITDFFPEDITVEWQWNGQPAENYKNTQPIMDTDGSYFVYSKLNVQKSNWEAGNTFTCSVLHEGLHNHHTEKSLSHSPGK
light: MKLPVRLLVLMFWIPASSSDVVMTQTPLSLPVSLGDQASISCRSSQSLVHSNGNTYLHWYLQKPGQSPKLLIYKVSNRFSGVPDRFSGSGSGTDFTLKISRVEAEDLGIYFCSQSTHVPWTFGGGTKLEIKRADAAPTVSIFPPSSEQLTSGGASVVCFLNNFYPKDINVKWKIDGSERQNGVLNSWTDQDSKDSTYSMSSTLTLTKDEYERHNSYTCEATHKTSTSPIVKSFNRNEC
In the case of B1, the “cytocidal effect (cell viability, ATP)” value [9] is reported as “exhibits a cytocidal effect on both cell lines in an antibody concentration-dependent manner” and the “cytocidal effect (cell viability, ATP)” value [10] is reported as “exhibits a cytocidal effect on both cell lines in an antibody concentration-dependent manner”.
